Here are results for three compounds from ChEMBL document CHEMBL1150483, “4-oxygenated retinoids: unexpected chemopreventive potential for analogues originally synthesized as affinity labels” (1992).

Molecules are shown by their SMILES.

For test [1], the species on record is Mus musculus. Briefly: Ability to inhibit tumor promoter-induced ornithine decarboxylase activity in mouse skin using 1.7 nM of protein. It counts as functional.
The species entered for test [2] is Mus musculus. In words: Ability to inhibit tumor promoter-induced ornithine decarboxylase activity in mouse skin using 17 nM of protein. The test is classed as functional.

Consider `C=CC(=O)OC1CCC(C)(C)C(/C=C/C(C)=C/C=C/C(C)=C/C(=O)O)=C1C` (stereo unspecified), for which the “ODC Activity” value is 3.5 (nM of CO2) 30min-1 (mg of protein)-1 in the test filed under Mus musculus [1] and 2.4 (nM of CO2) 30min-1 (mg of protein)-1 in the test listed under Mus musculus [2].
Turning to `CC1=C(/C=C/C(C)=C/C=C/C(C)=C/C(=O)O)C(C)(C)CCC1OC(=O)CBr` (stereo unspecified), the “ODC Activity” value in the test filed under Mus musculus [1] was 2.3 (nM of CO2) 30min-1 (mg of protein)-1; in the test filed under Mus musculus [2] it was 2.5 (nM of CO2) 30min-1 (mg of protein)-1.
Take `CC1=C(/C=C/C(C)=C/C=C/C(C)=C/C(=O)O)C(C)(C)CCC1` [TRETINOIN]: the “ODC Activity” value in the test filed under Mus musculus [1] was 2 (nM of CO2) 30min-1 (mg of protein)-1; in the test listed under Mus musculus [2] it was 1.9 (nM of CO2) 30min-1 (mg of protein)-1.
